{"source": "PubChem BioAssay AID2060613", "about": "(Molecular Pharmacology Branch, DTP, NCI, 2025)", "tested_on": "233499-124-R-J3-PDC complex spheroid viability", "assay": "Anticancer human tumor 233499-124-R-J3-PDC patient-derived colon adenocarcinoma cell line growth inhibition [CLK]", "conditions": "for viability, T/C: stronger effect = lower value", "summary_of_the_method": "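Patient-derived tumor cells grown as complex spheroids with HUVEC endothelial cells and mesenchymal stem cells, treated with drug combinations. Concentrations descend in half-log steps from near clinical Cmax, or from 10 microM if Cmax unknown.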", "note": "Several values for one entry are separate records, joined by “and”; a condition that tells them apart may be missing. Equal entries are not always repeated.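 Note: spheroids exposed to the drug combinations for seven days.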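 Throughout, for viability, T/C: percent viability relative to DMSO vehicle control wells taken as 100%.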"}
{"smiles": "CC1COCCN1c1cc(C2(S(C)(=N)=O)CC2)nc(-c2ccnc3[nH]ccc23)n1", "note": "(stereo unspecified) + CNC(=O)c1ccc(Nc2nc(OC3CCCC3)c3c(-c4ccc5nc(C)oc5c4)c[nH]c3n2)c(OC)c1", "values": [{"measurement": "IC50", "setting": "curve of first compound, second compound 0.0316 µM", "value": 9.04, "unit": "µM"}, {"measurement": "IC50", "setting": "curve of first compound, second compound 0.1 µM", "value": 8.71, "unit": "µM"}, {"measurement": "IC50", "setting": "curve of first compound, second compound 0.316 µM", "value": 6.66, "unit": "µM"}, {"measurement": "IC50", "setting": "curve of first compound, second compound 1 µM", "value": 5.52, "unit": "µM"}, {"measurement": "IC50", "setting": "curve of first compound, second compound 3.16 µM", "value": 3.24, "unit": "µM"}, {"measurement": "IC50", "setting": "curve of first compound, second compound 10 µM", "value": 4.41, "unit": "µM"}, {"measurement": "viability, T/C", "setting": "second compound 0.0316 µM, first compound 0.0316 µM", "value": 90, "unit": "%"}, {"measurement": "viability, T/C", "setting": "second compound 0.0316 µM, first compound 0.1 µM", "value": 103, "unit": "%"}, {"measurement": "viability, T/C", "setting": "second compound 0.0316 µM, first compound 0.316 µM", "value": 77.8, "unit": "%"}, {"measurement": "viability, T/C", "setting": "second compound 0.0316 µM, first compound 1 µM", "value": 87.5, "unit": "%"}, {"measurement": "viability, T/C", "setting": "second compound 0.0316 µM, first compound 3.16 µM", "value": 89.7, "unit": "%"}, {"measurement": "viability, T/C", "setting": "second compound 0.0316 µM, first compound 10 µM", "value": 46.2, "unit": "%"}, {"measurement": "viability, T/C", "setting": "second compound 0.1 µM, first compound 0.0316 µM", "value": 76.6, "unit": "%"}, {"measurement": "viability, T/C", "setting": "second compound 0.1 µM, first compound 0.1 µM", "value": 76.9, "unit": "%"}, {"measurement": "viability, T/C", "setting": "second compound 0.1 µM, first compound 0.316 µM", "value": 71.6, "unit": "%"}, {"measurement": "viability, T/C", "setting": "second compound 0.1 µM, first compound 1 µM", "value": 70.1, "unit": "%"}, {"measurement": "viability, T/C", "setting": "second compound 0.1 µM, first compound 3.16 µM", "value": 70.5, "unit": "%"}, {"measurement": "viability, T/C", "setting": "second compound 0.1 µM, first compound 10 µM", "value": 47.2, "unit": "%"}, {"measurement": "viability, T/C", "setting": "second compound 0.316 µM, first compound 0.0316 µM", "value": 81.3, "unit": "%"}, {"measurement": "viability, T/C", "setting": "second compound 0.316 µM, first compound 0.1 µM", "value": 88.1, "unit": "%"}, {"measurement": "viability, T/C", "setting": "second compound 0.316 µM, first compound 0.316 µM", "value": 74, "unit": "%"}, {"measurement": "viability, T/C", "setting": "second compound 0.316 µM, first compound 1 µM", "value": 76.6, "unit": "%"}, {"measurement": "viability, T/C", "setting": "second compound 0.316 µM, first compound 3.16 µM", "value": 68, "unit": "%"}, {"measurement": "viability, T/C", "setting": "second compound 0.316 µM, first compound 10 µM", "value": 40.3, "unit": "%"}, {"measurement": "viability, T/C", "setting": "second compound 1 µM, first compound 0.0316 µM", "value": 86.4, "unit": "%"}, {"measurement": "viability, T/C", "setting": "second compound 1 µM, first compound 0.1 µM", "value": 59.8, "unit": "%"}, {"measurement": "viability, T/C", "setting": "second compound 1 µM, first compound 0.316 µM", "value": 61.8, "unit": "%"}, {"measurement": "viability, T/C", "setting": "second compound 1 µM, first compound 1 µM", "value": 74.1, "unit": "%"}, {"measurement": "viability, T/C", "setting": "second compound 1 µM, first compound 3.16 µM", "value": 61.7, "unit": "%"}, {"measurement": "viability, T/C", "setting": "second compound 1 µM, first compound 10 µM", "value": 36.8, "unit": "%"}, {"measurement": "viability, T/C", "setting": "second compound 3.16 µM, first compound 0.0316 µM", "value": 72.8, "unit": "%"}, {"measurement": "viability, T/C", "setting": "second compound 3.16 µM, first compound 0.1 µM", "value": 77.6, "unit": "%"}, {"measurement": "viability, T/C", "setting": "second compound 3.16 µM, first compound 0.316 µM", "value": 82.5, "unit": "%"}, {"measurement": "viability, T/C", "setting": "second compound 3.16 µM, first compound 1 µM", "value": 70.3, "unit": "%"}, {"measurement": "viability, T/C", "setting": "second compound 3.16 µM, first compound 3.16 µM", "value": 50.8, "unit": "%"}, {"measurement": "viability, T/C", "setting": "second compound 3.16 µM, first compound 10 µM", "value": 30.5, "unit": "%"}, {"measurement": "viability, T/C", "setting": "second compound 10 µM, first compound 0.0316 µM", "value": 69.5, "unit": "%"}, {"measurement": "viability, T/C", "setting": "second compound 10 µM, first compound 0.1 µM", "value": 69.3, "unit": "%"}, {"measurement": "viability, T/C", "setting": "second compound 10 µM, first compound 0.316 µM", "value": 69.2, "unit": "%"}, {"measurement": "viability, T/C", "setting": "second compound 10 µM, first compound 1 µM", "value": 63.8, "unit": "%"}, {"measurement": "viability, T/C", "setting": "second compound 10 µM, first compound 3.16 µM", "value": 59.6, "unit": "%"}, {"measurement": "viability, T/C", "setting": "second compound 10 µM, first compound 10 µM", "value": 29, "unit": "%"}]}
{"smiles": "C#Cc1c(F)ccc2cc(O)cc(-c3ncc4c(N5CC6CCC(C5)N6)nc(OCC56CCCN5CC(F)C6)nc4c3F)c12", "note": "(stereo unspecified)", "values": [{"measurement": "viability, T/C", "setting": "compound 0.0316 µM", "value": "86.1% and 87.7%"}, {"measurement": "viability, T/C", "setting": "compound 0.1 µM", "value": "102% and 104%"}, {"measurement": "viability, T/C", "setting": "compound 0.316 µM", "value": "95.6% and 105%"}, {"measurement": "viability, T/C", "setting": "compound 1 µM", "value": "92% and 87.8%"}, {"measurement": "viability, T/C", "setting": "compound 3.16 µM", "value": "89.5% and 79%"}, {"measurement": "viability, T/C", "setting": "compound 10 µM", "value": "76.6% and 78.5%"}, {"measurement": "IC50", "setting": "curve of compound", "value": "> 10", "unit": "µM"}]}
{"smiles": "CCCS(=O)(=O)Nc1ccc(F)c(C(=O)c2c[nH]c3ncc(-c4ccc(Cl)cc4)cc23)c1F", "values": [{"measurement": "viability, T/C", "setting": "compound 0.0316 µM", "value": "91.2% and 100%"}, {"measurement": "viability, T/C", "setting": "compound 0.1 µM", "value": "97.3% and 103%"}, {"measurement": "viability, T/C", "setting": "compound 0.316 µM", "value": "111% and 99.1%"}, {"measurement": "viability, T/C", "setting": "compound 1 µM", "value": "104% and 110%"}, {"measurement": "viability, T/C", "setting": "compound 3.16 µM", "value": "104% and 105%"}, {"measurement": "viability, T/C", "setting": "compound 10 µM", "value": "98% and 65.2%"}, {"measurement": "IC50", "setting": "curve of compound", "value": "> 10", "unit": "µM"}]}
